Measured values reported in ChEMBL document CHEMBL3045127, “Esterase inhibition by synergists in the western flower thrips Frankliniella occidentalis” (Pest Manag Sci, 2011).
pIC50: −log10 of the molar value.

Assays:
[1] = tested on: Frankliniella occidentalis; assay: Resistance ratio, LC50 for Frankliniella occidentalis MLFOM (western flower thrips) to LC50 for Frankliniella occidentalis ACR; format: functional
[2] = tested on: Frankliniella occidentalis; assay: Insecticidal activity against Frankliniella occidentalis ACR (western flower thrips); format: functional, organism-based
[3] = tested on: Frankliniella occidentalis; assay: Insecticidal activity against Frankliniella occidentalis MLFOM (western flower thrips); format: functional
[4] = tested on: Frankliniella occidentalis; assay: Resistance ratio, LC50 for Frankliniella occidentalis MLFOM (western flower thrips) to LC50 for Frankliniella occidentalis FOR; format: functional
[5] = tested on: Frankliniella occidentalis; assay: Insecticidal activity against Frankliniella occidentalis FOR (western flower thrips); format: functional, organism-based
[6] = Inhibition of Frankliniella occidentalis MET (western flower thrips) total esterase activity
[7] = Inhibition of Frankliniella occidentalis ACR (western flower thrips) total esterase activity
[8] = Inhibition of Frankliniella occidentalis FOR (western flower thrips) total esterase activity
[9] = Inhibition of Frankliniella occidentalis MLFOM (western flower thrips) total esterase activity
[10] = tested on: Frankliniella occidentalis; assay: Resistance ratio, LC50 for Frankliniella occidentalis MLFOM (western flower thrips) to LC50 for Frankliniella occidentalis MET; format: functional
[11] = tested on: Frankliniella occidentalis; assay: Insecticidal activity against Frankliniella occidentalis MET (western flower thrips); format: functional

SMILES | RatioLC50 [1] | LC50 [2] [mgAi/L] | LC50 [3] [mgAi/L] | RatioLC50 [4] | LC50 [5] [mgAi/L] | pIC50 [6] | pIC50 [7] | pIC50 [8] | pIC50 [9] | RatioLC50 [10] | pIC50 ([5]; Frankliniella occidentalis, FOR) | LC50 [11] [mgAi/L] | pIC50 ([2]; Frankliniella occidentalis, ACR)
CC1(C)[C@H](C(=O)O[C@H](C#N)c2cccc(Oc3ccccc3)c2)[C@@H]1/C=C\C(=O)OC(C(F)(F)F)C(F)(F)F [ACRINATHRIN] | 1430 | 12870 | 9 | – | – | – | – | – | – | – | – | – | –
CNC(=O)Oc1cccc(/N=C/N(C)C)c1 [FORMETANATE] | – | – | 765 | 26 | 20160 | – | – | – | – | – | – | – | –
CNC(=O)Oc1cc(C)c(SC)c(C)c1 [METHIOCARB] | – | – | 15 | – | – | 5.70 | 5.57 | 5.53 | 5.72 | 41 | 5.53 | 620 | 5.57
CCCCOCCOCCOCc1cc2c(cc1CCC)OCO2 [PIPERONYL BUTOXIDE] | – | – | – | – | – | 2.67 | 2.57 | 2.72 | 2.62 | – | – | – | –
CCCCSP(=O)(SCCCC)SCCCC [S,S,S,-TRIBUTYLPHOSPHOROTRITHIOATE] | – | – | – | – | – | 6.28 | 6.35 | 6.29 | 6.34 | – | – | – | –
